Laboratory results taken from patent US20110319416A1, “Subunit Selective NMDA Receptor Antagonists For The Treatment Of Neurological Conditions” (EMORY UNIVERSITY, priority 2009, published 2011).
Read-outs that look alike come from different tables or passages of the source. One block for each compound: values may come before it.

Key:
Format in all cases: cell-based
NR1/NR2D = NR1/NR2D (Rattus norvegicus, UniProt P35439+Q62645); assay: Two electrode voltage clamp, Xenopus oocytes expressing recombinant NR1/NR2D; conditions: for remaining activity at 100 µM: read-out: 2D percent effect at the maximum tested concentration
Protocol: (§1) Quality of synthesized cRNA was assessed by gel electrophoresis, and quantity was estimated by spectroscopy and gel electrophoresis. Stage V and VI oocytes were surgically removed from the ovaries of large, well-fed and healthy Xenopus laevis anesthetized with 3-amino-benzoic acid ethyl ester (3 gm/l) as previously described. Clusters of isolated oocytes were incubated with 292 U/ml Worthington (Freehold, N.J.) type IV collagenase or 1.3 mg/ml collagenase (Life Technologies, Gaithersburg, MD; 17018-029) for 2 hr in Ca^2+-free solution comprised of (in mM) 115 NaCl, 2.5 KCl, and 10 HEPES, pH 7.5, with slow agitation to remove the follicular cell layer. Oocytes were then washed extensively in the same solution supplemented with 1.8 mM CaCl2 and maintained in Barth's solution comprised of (in mM): 88 NaCl, 1 KCl, 2.4 NaHCO3, 10 HEPES, 0.82 MgSO4, 0.33 Ca(NO3)2, and 0.91 CaCl2 and supplemented with 100 μg/m1 gentamycin, 10 μg/ml streptomycin, and 10 μg/ml penicillin. Oocytes were manually defolliculated and injected within 24 hrs of isolation with 3-5 ng of NR1 subunit cRNA and 7-10 ng of NR2 cRNA subunit in a 50 nl volume, or 5-10 ng of AMPA or kainate receptor cRNAs in a 50 nl volume, and incubated in Barth's solution at 18° C. for 1-7 d. Glass injection pipettes had tip sizes ranging from 10-20 microns, and were backfilled with mineral oil.
(§2) Two electrode voltage-clamp recordings were made 2-7 days post-injection as previously described. Oocytes were placed in a dual-track plexi-glass recording chamber with a single perfusion line that splits in a Y-configuration to perfuse two oocytes. Dual recordings were made at room temperature (23° C.) using two Warner OC725B two-electrode voltage clamp amplifiers, arranged as recommended by the manufacturer. Glass microelectrodes (1-10 Megaohms) were filled with 300 mM KCl (voltage electrode) or 3 M KCl (current electrode). The bath clamps communicated across silver chloride wires placed into each side of the recording chamber, both of which were assumed to be at a reference potential of 0 mV. Oocytes were perfused with a solution comprised of (in mM) 90 NaCl, 1 KCl, 10 HEPES, and 0.5 BaCl2; pH was adjusted by addition of 1-3 M NaOH of HC1 to 7.4. Oocytes were recorded under voltage clamp at −40 mV. […] In some experiments, 10 μM EDTA was obtained by adding a 1:1000 dilution of 10 mM EDTA, in order to chelate contaminant divalent ions such as Zn^2+. […] Concentration effect curves consisting of 4 to 8 concentrations were obtained in this manner. The baseline leak current at −40 mV was measured before and after recording, and the full recording linearly corrected for any change in leak current. […] Each experiment consisted of recordings from 3 to 10 oocytes obtained from a single frog. Results from multiple experiments were pooled, and the average percent responses at antagonist concentrations were fitted by the equation,
(§3) Percent Response=(100−minimum)/(1+([conc]/IC50)nH)+minimum

NR1/NR2B = NR1/NR2B (Rattus norvegicus, UniProt P35439+Q00960); assay: Two electrode voltage clamp, Xenopus oocytes expressing recombinant NR1/NR2B; conditions: for remaining activity at 100 µM: read-out: 2B percent effect at the maximum tested concentration
Protocol: as §1, §2, §3

NR1/NR2C = NR1/NR2C (Rattus norvegicus, UniProt P35439+Q00961); assay: Two electrode voltage clamp, Xenopus oocytes expressing recombinant NR1/NR2C; conditions: for remaining activity at 100 µM: read-out: 2C percent effect at the maximum tested concentration
Protocol: as §1, §2, §3

NR1/NR2A = NR1/NR2A (Rattus norvegicus, UniProt P35439+Q00959); assay: Two electrode voltage clamp, Xenopus oocytes expressing recombinant NR1/NR2A; conditions: for remaining activity at 100 µM: read-out: 2A percent effect at the maximum tested concentration; for IC50: logistic fit, minimum forced to 0, read-out: 2A IC50
Protocol: as §1, §2, §3

[1] = logistic fit, minimum forced to 0, read-out: 2D IC50
[2] = logistic fit, minimum forced to 0, read-out: 2B IC50
[3] = logistic fit, minimum forced to 0, read-out: 2C IC50

Chain of NR1/NR2B (Q00960 27-1482, other chains not shown): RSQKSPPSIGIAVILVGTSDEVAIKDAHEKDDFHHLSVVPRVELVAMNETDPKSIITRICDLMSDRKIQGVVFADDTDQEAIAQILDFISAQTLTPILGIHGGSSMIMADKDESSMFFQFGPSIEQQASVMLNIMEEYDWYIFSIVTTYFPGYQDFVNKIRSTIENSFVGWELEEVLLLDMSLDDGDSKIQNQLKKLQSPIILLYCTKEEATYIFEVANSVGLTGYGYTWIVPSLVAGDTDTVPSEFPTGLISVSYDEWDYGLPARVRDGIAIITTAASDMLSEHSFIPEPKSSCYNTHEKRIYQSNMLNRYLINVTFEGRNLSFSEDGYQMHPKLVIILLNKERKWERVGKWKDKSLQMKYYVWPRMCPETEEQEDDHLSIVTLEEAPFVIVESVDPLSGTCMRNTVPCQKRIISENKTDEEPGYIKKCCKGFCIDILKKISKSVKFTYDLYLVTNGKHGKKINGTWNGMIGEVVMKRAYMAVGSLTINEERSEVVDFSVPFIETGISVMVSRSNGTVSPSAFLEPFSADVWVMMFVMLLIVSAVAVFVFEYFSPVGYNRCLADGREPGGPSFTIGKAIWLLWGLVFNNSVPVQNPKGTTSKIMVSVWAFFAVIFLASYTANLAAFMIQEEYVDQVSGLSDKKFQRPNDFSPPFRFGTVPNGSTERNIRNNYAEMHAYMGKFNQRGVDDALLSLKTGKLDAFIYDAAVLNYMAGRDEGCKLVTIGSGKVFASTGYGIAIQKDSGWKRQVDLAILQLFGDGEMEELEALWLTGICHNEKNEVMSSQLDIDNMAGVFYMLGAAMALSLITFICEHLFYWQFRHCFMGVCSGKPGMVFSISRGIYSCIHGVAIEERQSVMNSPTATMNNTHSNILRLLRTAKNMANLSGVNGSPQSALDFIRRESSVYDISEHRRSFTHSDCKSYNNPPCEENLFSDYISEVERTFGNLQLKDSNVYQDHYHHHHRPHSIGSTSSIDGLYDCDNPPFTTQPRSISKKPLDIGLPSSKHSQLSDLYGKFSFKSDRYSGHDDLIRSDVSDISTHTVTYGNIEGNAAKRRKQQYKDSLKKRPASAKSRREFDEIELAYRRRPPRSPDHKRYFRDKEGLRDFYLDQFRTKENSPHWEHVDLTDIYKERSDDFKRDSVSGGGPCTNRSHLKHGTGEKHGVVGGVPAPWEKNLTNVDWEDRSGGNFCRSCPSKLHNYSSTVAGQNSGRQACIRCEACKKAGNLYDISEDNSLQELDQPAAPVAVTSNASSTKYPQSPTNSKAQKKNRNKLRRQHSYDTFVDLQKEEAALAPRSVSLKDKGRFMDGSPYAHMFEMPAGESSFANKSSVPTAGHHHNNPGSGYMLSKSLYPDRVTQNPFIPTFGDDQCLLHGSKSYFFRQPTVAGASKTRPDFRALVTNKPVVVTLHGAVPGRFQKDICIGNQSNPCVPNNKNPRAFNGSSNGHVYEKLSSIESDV
Chain of NR1/NR2C (Q00961 20-1237, other chains not shown): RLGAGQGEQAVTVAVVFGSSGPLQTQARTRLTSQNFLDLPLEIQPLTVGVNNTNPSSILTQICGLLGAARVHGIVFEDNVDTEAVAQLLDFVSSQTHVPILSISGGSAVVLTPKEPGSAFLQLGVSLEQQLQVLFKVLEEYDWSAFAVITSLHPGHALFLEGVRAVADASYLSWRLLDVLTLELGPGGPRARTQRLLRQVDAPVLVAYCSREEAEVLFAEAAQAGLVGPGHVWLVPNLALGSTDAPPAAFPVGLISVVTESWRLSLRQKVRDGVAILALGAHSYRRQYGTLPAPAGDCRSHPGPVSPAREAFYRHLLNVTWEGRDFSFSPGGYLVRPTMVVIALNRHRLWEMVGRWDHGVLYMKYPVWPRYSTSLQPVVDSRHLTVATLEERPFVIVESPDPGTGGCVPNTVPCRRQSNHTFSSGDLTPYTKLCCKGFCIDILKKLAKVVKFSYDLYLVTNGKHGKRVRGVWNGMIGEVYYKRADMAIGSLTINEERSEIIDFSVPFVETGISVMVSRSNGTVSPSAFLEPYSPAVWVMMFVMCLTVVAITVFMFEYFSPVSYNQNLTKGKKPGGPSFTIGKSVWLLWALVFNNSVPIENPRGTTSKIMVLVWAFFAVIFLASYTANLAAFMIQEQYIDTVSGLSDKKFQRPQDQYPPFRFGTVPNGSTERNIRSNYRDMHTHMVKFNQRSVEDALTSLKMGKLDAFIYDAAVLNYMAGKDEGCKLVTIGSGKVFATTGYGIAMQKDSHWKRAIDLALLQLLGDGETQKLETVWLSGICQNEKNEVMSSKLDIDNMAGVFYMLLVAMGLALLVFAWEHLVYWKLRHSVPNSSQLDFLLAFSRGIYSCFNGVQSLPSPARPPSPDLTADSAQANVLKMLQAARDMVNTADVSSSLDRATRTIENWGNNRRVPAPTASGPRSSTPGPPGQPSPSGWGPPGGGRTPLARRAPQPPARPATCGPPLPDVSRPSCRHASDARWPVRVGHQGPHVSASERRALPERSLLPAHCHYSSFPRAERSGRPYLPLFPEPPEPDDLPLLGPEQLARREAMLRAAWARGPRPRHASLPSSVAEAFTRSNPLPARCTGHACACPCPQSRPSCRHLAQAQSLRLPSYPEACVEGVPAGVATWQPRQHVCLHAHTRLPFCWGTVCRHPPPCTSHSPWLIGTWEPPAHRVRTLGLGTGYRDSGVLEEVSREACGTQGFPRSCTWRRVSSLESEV
Chain of NR1/NR2D (Q62645 28-1323, other chains not shown): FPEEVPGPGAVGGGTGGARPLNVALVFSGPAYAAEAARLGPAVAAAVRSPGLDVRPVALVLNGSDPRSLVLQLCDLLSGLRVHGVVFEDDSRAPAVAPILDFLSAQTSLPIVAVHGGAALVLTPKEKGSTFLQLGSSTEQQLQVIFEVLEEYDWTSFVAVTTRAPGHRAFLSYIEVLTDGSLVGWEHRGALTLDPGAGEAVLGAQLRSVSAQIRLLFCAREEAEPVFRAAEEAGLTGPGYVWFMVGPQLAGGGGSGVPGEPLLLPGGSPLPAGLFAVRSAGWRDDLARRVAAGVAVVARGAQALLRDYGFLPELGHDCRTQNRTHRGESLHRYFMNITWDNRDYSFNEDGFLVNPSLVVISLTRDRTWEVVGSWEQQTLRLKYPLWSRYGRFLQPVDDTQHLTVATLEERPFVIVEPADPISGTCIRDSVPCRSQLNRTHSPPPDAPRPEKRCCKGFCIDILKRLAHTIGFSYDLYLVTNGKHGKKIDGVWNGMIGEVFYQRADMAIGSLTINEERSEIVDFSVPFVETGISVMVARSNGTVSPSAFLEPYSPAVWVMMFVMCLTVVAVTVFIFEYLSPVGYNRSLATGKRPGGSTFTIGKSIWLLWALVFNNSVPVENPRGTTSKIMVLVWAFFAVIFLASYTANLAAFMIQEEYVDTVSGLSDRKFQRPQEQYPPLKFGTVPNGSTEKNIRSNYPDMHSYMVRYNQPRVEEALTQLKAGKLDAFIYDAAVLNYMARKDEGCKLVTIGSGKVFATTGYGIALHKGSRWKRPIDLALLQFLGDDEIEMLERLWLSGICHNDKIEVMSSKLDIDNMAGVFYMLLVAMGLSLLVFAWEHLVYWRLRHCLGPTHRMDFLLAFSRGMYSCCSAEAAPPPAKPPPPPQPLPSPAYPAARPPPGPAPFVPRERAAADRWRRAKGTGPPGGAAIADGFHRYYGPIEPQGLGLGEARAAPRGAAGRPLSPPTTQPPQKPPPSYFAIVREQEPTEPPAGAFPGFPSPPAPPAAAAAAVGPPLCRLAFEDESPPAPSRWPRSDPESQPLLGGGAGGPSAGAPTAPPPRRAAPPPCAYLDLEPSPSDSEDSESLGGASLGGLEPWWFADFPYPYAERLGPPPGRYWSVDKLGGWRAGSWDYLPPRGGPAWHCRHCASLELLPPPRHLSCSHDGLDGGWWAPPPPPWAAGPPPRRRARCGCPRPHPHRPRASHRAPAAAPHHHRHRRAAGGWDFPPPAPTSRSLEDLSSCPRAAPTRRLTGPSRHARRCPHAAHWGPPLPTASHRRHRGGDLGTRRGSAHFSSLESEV

Compound: O=C(Nc1cccc2ccccc12)c1ccc(OC(=O)N2CCCC2)cc1 [1063-6]
IC50 (NR1/NR2B; [2]): 502 µM | IC50 (NR1/NR2C; [3]): 135 µM | IC50 (NR1/NR2D; [1]): 257 µM | remaining activity at 100 µM (NR1/NR2A; at 100 μM): 87%

Compound: CCN(CC)C(=O)Oc1cccc(C(=O)Nc2cccc3ccccc23)c1 [1063-24]
remaining activity at 100 µM (NR1/NR2B): 95% | remaining activity at 100 µM (NR1/NR2C): 93% | remaining activity at 100 µM (NR1/NR2D): 84% | remaining activity at 100 µM (NR1/NR2A; at 100 μM): 84%

Compound: CCN(CC)C(=O)Oc1ccc(C(=O)Nc2cc(C)cc3c2NCC3)cc1 [1063-32]
IC50 (NR1/NR2B): 215 µM | IC50 (NR1/NR2C): 20 µM | IC50 (NR1/NR2D): 8 µM | remaining activity at 100 µM (NR1/NR2A): 81%

Compound: CCN(CC)C(=O)Oc1ccc(C(=O)Nc2cc(C)cc(C)c2)cc1 [1063-17]
IC50 (NR1/NR2B): 89 µM | IC50 (NR1/NR2C): 18 µM | IC50 (NR1/NR2D): 8 µM | remaining activity at 100 µM (NR1/NR2A): 79%

Compound: CC(C)N(C(=O)Oc1ccc(C(=O)Oc2cccc3c(N)cccc23)cc1)C(C)C [1063-14]
remaining activity at 100 µM (NR1/NR2B): 95% | remaining activity at 100 µM (NR1/NR2C): 85% | remaining activity at 100 µM (NR1/NR2D): 75% | remaining activity at 100 µM (NR1/NR2A; at 100 μM): 104%

Compound: Cn1c(=O)oc2ccc(C(=O)Nc3cccc4ccccc34)cc21 [1063-29]
remaining activity at 100 µM (NR1/NR2B): 81% | remaining activity at 100 µM (NR1/NR2C): 80% | remaining activity at 100 µM (NR1/NR2D): 75% | remaining activity at 100 µM (NR1/NR2A; at 100 μM): 92%

Compound: O=C(O)CCC(=O)N1N=C(c2c(-c3ccccc3)c3cc(Br)ccc3[nH]c2=O)CC1c1ccc(Br)cc1 (stereo not drawn) [compound 997]
IC50 (NR1/NR2B; [2]): 19 µM | IC50 (NR1/NR2C; [3]): 5 µM | IC50 (NR1/NR2D; [1]): 3 µM | IC50 (NR1/NR2A): 78 µM

Compound: O=C(Nc1cccc2ccccc12)c1ccc(Oc2nc(-c3ccccc3)cs2)cc1 [1063-22]
remaining activity at 100 µM (NR1/NR2B): 91% | remaining activity at 100 µM (NR1/NR2C): 92% | remaining activity at 100 µM (NR1/NR2D): 88% | remaining activity at 100 µM (NR1/NR2A; at 100 μM): 96%

Compound: CCN(CC)C(=O)c1ccc(C(=O)Nc2cccc3cc[nH]c23)cc1 [1063-27]
remaining activity at 100 µM (NR1/NR2B): 83% | remaining activity at 100 µM (NR1/NR2C): 93% | remaining activity at 100 µM (NR1/NR2D): 82% | IC50 (NR1/NR2A): 497 µM

Compound: CCN(CC)C(=O)Nc1ccc(C(=O)Nc2cccc3ccccc23)cc1 [1063-11]
remaining activity at 100 µM (NR1/NR2B): 88% | IC50 (NR1/NR2C; [3]): 687 µM | IC50 (NR1/NR2D; [1]): 527 µM | remaining activity at 100 µM (NR1/NR2A; at 100 μM): 102%

Compound: CC(C)N(C(=O)Oc1ccc(C(=O)Nc2ccc3cc[nH]c3c2)cc1)C(C)C [1063-15]
IC50 (NR1/NR2B): 44 µM | IC50 (NR1/NR2C): 11 µM | IC50 (NR1/NR2D): 12 µM | remaining activity at 100 µM (NR1/NR2A): 74%

Compound: CN(C)C(=O)Oc1ccc(C(=O)Nc2cccc3ccccc23)cc1 [1063-3]
IC50 (NR1/NR2B): 1450 µM | IC50 (NR1/NR2C): 619 µM | IC50 (NR1/NR2D): 194 µM | remaining activity at 100 µM (NR1/NR2A): 110%

The remaining lines, values ahead:

IC50 (NR1/NR2D; [1]): > 1000 µM
Compound: O=C(Nc1cccc2ccccc12)c1ccc(OC(=S)N2CCOCC2)cc1 [compound 1374]

IC50 (NR1/NR2D; [1]): > 300 µM
Compound: O=c1[nH]c2ccc(Br)cc2c(-c2ccccc2)c1C1=NNC(c2ccc(F)cc2)C1 (stereo not drawn) [compound 1248]

IC50 (NR1/NR2D; [1]): 32 µM
Compound: O=C(O)CCC(=O)N1N=C(c2c(-c3ccccc3)c3cc(Cl)ccc3[nH]c2=O)CC1c1ccccc1 (stereo not drawn) [compound 1149]

IC50 (NR1/NR2B; [2]): 59 µM | IC50 (NR1/NR2C; [3]): 16 µM | IC50 (NR1/NR2D; [1]): 9 µM | IC50 (NR1/NR2A): 140 µM
Compound: Cc1ccc(C2CC(c3c(-c4ccccc4)c4cc(Br)ccc4[nH]c3=O)=NN2C(=O)CCC(=O)O)cc1 (stereo not drawn) [compound 1185]

IC50 (NR1/NR2D; [1]): 20 µM
Compound: O=C(O)CCC(=O)N1N=C(c2c(-c3ccccc3)c3cc(Br)ccc3[nH]c2=O)CC1c1ccccc1 (stereo not drawn) [compound 1183]

IC50 (NR1/NR2D; [1]): 21 µM
Compound: O=C(O)CCC(=O)N1N=C(c2c(-c3ccccc3)c3cc(Br)ccc3[nH]c2=O)CC1c1ccccc1F (stereo not drawn) [compound 1178]
